Test results from patent US10105372B2, “Methods of treating obesity using antioxidant inflammation modulators” (REATA PHARMACEUTICALS, INC., priority 2010, dated 2018).
Several values for one entry are separate records, joined by “and”; a condition that tells them apart may be missing. Identical values can stand only once. Entries after “also recorded” stand apart in the source; their conditions may differ.

Tests used:
[1] = 12-month toxicity study, body weight; type: in vivo, cynomolgus monkeys; conditions: for % gain / kg gained: pretest to Week 50
Method: All the animals were healthy and within normal weights for their age at the start of the study. The dose levels were 0, 30/5, 100/30, and 300 mg/kg/day and administered at a dose volume of 3 mL per dose. The control group received the vehicle in the same manner as the treated groups. Just prior to administration, the test article for each animal was added to the syringe containing the vehicle for each animal and vortexed until thoroughly mixed to achieved the desired concentrations of 30, 100, and 300 mg/mL through Day 42 (Week 6). During administration, the syringe containing the test article preparation for each animal was pushed through the gavage tube. The 1 mL vehicle rinse was then added to the dosing syringe and administered. After administration of both volumes, a 5 mL flush of the vehicle was used to rinse the gavage tube and ensure that the entire amount of the test article was administered to the animal. […] Therefore, dose levels were adjusted so that different blood exposures could be examined. During Week 7 dosing for all animals was stopped for four days (Days 43 to 46). The initial dose levels of 30 and 100 mg/kg/day were reduced to 5 and 30 mg/kg/day, respectively, and dosing was resumed on Day 47 through Day 353. Individual doses were based on the most recent body weights.

[2] = Phase 2 clinical trial, patient body weight and tolerability; type: in vivo, human
Method: See Example 1, below. […] In this study, the protocol stipulated that patient weights were to be taken at baseline (D−1=1 day before initiation of dosing), Day 28, and Day 56. […] In this study, the protocol stipulated that patient weights were to be taken at baseline (D−1=1 day before initiation of dosing), Day 28, and Day 56. […] Prior to initiation of treatment, basic clinical observations (e.g., weight, blood pressure, height) were recorded along with baseline values for serum creatinine, blood urea nitrogen, serum phosphorus, serum uric acid, angiotensin II, fasting glucose, hemoglobin A1c, circulating endothelial cells (CECs), and iNOS-positive CECs.

With `COC(=O)[C@]12CCC(C)(C)C[C@H]1[C@H]1C(=O)C=C3[C@@]4(C)C=C(C#N)C(=O)C(C)(C)[C@@H]4CC[C@@]3(C)[C@]1(C)CC2` [bardoxolone methyl] the “Week 26 Weight” value ([1]; Females, 300 mg/kg/day) was 2.552 kg, the “Week 50 Weight” value ([1]; Females, 300 mg/kg/day) was 2.68 kg and the “% gain” value ([1]; Females, 300 mg/kg/day) was 28.60%. The kg gained ([1]; Females, 300 mg/kg/day) was 0.596 kg, the “Week 26 Weight” value ([1]; Females, 30/5 mg/kg/day) was 2.454 kg and the “Week 50 Weight” value ([1]; Females, 30/5 mg/kg/day) was 2.608 kg. For the same compound, the “% gain” value ([1]; Females, 30/5 mg/kg/day) was 26.05%, the kg gained ([1]; Females, 30/5 mg/kg/day) was 0.539 kg and the “Week 26 Weight” value ([1]; Females, 100/30 mg/kg/day) was 2.293 kg. For the same compound, the “Week 50 Weight” value ([1]; Females, 100/30 mg/kg/day) was 2.68 kg, the “% gain” value ([1]; Females, 100/30 mg/kg/day) was 30.22% and the kg gained ([1]; Females, 100/30 mg/kg/day) was 0.622 kg. For the same compound, the “Week 26 Weight” value ([1]; Males, 300 mg/kg/day) was 2.52 kg, the “Week 50 Weight” value ([1]; Males, 300 mg/kg/day) was 2.808 kg and the “% gain” value ([1]; Males, 300 mg/kg/day) was 31.15%. For the same compound, the kg gained ([1]; Males, 300 mg/kg/day) was 0.667 kg, the “Week 50 Weight” value ([1]; Males, 30/5 mg/kg/day) was 2.975 kg and the “Week 26 Weight” value ([1]; Males, 30/5 mg/kg/day oral gavage) was 2.567 kg. For the same compound, the “% gain” value ([1]; Males, 30/5 mg/kg/day) was 39.80%, the kg gained ([1]; Males, 30/5 mg/kg/day) was 0.847 kg and the “Week 26 Weight” value ([1]; Males, 100/30 mg/kg/day) was 2.464 kg. For the same compound, the “Week 50 Weight” value ([1]; Males, 100/30 mg/kg/day) was 2.725 kg, the “% gain” value ([1]; Males, 100/30 mg/kg/day) was 26.63% and the kg gained ([1]; Males, 100/30 mg/kg/day) was 0.573 kg. The “effect on body weight” value ([1]; healthy monkeys with normal body weights, all treated groups, 26 and 50 weeks) was “gained significant amounts of weight; also recorded: did not induce weight loss”, the mean weight loss ([2]; Day 28) was 1.6 % of baseline weight and the “patients who had lost weight at Day 28” value ([2]; Day 28, 25 mg once per day) was 14 of 17. The mean weight loss ([2]; Day 56) was 3.7 % of baseline, the median weight loss ([2]; Day 56, of baseline) was 3.1% and the “patients who had lost weight at Day 56” value ([2]; Day 56, 25 mg/day 28 days then 75 mg/day 28 days) was 17 of 17. The “patients who lost more than 2% of their baseline weight” value ([2]; between Day −1 and Day 56) was “all but three”, the “Weight D28” value ([2]; individual CKD/Type 2 diabetes patients, Day 28, 25 mg once per day oral) was 80.7 kg and 75.7 kg and 108.9 kg (2×) and 80.3 kg and 112.9 kg and 78.9 kg and 88.5 kg and 104.3 kg and 169.3 kg and 52.6 kg and 83.5 kg and 159.7 kg and 114 kg and 92.1 kg and 89.9 kg and 88.0 kg and the “Percent Change D28/D-1 (weight)” value ([2]; individual patients, Day 28 vs baseline, 25 mg/day) was 0.0% (2×) and −0.7% and −2.4% (2×) and −1.6% and −3.5% and −1.2% and −8.5% and −1.4% and −0.1% and −12.8% and −0.5% and 0.3% and −0.3% and −1.0% and −3.0%. For the same compound, the “Weight D56” value ([2]; individual patients, Day 56, 25 mg/day 28 days then escalated to 75 mg/day 28 days) was 75.7 kg and 74.4 kg and 107.0 kg and 78.5 kg and 97.1 kg and 108.0 kg and 111.1 kg and 77.1 kg and 88 kg and 102.1 kg and 165.9 kg and 52.2 kg and 80.3 kg and 157.9 kg and 110.4 kg and 87.1 kg, the “Weight D56” value ([2]; individual patients, Day 56, start dose 25 mg, escalated dose N/A) was 91.6 kg and 87.4 kg and the “Percent Change D56/D-1 (weight)” value ([2]; individual patients, Day 56 vs baseline, 25 mg/day then escalated to 75 mg/day) was −6.2% and −2.4% and −4.1% and −3.8% and −6.9% and −3.2% and −2.8% and −10.6% and −2.0% and −2.1% and −13.4% and −4.3% and −0.8% and −3.5% and −1.0%. For the same compound, the “Percent Change D56/D-1 (weight)” value ([2]; individual patients, Day 56 vs baseline, start dose 25 mg, escalated dose N/A) was −1.5% and −5.7%, the “Weight D28, Mean” value ([2]; mean of all patients, Day 28) was 99.4 kg and the “Percent Change D28/D-1 (weight), Mean” value ([2]; mean of all patients, Day 28 vs baseline) was −1.6%. For the same compound, the “Weight D56, Mean” value ([2]; mean of all patients, Day 56) was 97.3 kg, the “Percent Change D56/D-1 (weight), Mean” value ([2]; mean of all patients, Day 56 vs baseline) was −3.7% and the tolerability ([2]; patients with Type 2 diabetes and CKD, 56 days) was “very well tolerated”.
